Experimental data taken from PMC4097020 (Psychopharmacology, 2014).
Where two headings read alike, the source gives them in different places. Marks after values point to notes of the source that are not given here.

Experiments:
human D4.4 receptor = molecular target: T1, human D4.4 receptor (Homo sapiens, UniProt P21917); assay: biochemical; format: binding
T1 sequence (P21917 1-419): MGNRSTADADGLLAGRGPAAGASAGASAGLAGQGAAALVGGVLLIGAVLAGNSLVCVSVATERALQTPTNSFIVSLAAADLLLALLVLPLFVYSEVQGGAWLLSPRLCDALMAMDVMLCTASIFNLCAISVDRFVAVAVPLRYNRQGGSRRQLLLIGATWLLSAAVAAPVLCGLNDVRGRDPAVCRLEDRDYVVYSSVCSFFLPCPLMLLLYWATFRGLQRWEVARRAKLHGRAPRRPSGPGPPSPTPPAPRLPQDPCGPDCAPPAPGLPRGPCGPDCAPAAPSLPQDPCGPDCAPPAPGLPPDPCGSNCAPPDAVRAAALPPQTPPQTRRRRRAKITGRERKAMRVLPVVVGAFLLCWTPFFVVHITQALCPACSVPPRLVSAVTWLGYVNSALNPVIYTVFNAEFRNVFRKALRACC

[1] = molecular target: T2, recombinant human 5-HT1A receptor (Homo sapiens, UniProt P08908); assay: [3H]8-OH-DPAT binding to HEK-h5-HT1A cell membranes
T2 sequence (P08908 1-422): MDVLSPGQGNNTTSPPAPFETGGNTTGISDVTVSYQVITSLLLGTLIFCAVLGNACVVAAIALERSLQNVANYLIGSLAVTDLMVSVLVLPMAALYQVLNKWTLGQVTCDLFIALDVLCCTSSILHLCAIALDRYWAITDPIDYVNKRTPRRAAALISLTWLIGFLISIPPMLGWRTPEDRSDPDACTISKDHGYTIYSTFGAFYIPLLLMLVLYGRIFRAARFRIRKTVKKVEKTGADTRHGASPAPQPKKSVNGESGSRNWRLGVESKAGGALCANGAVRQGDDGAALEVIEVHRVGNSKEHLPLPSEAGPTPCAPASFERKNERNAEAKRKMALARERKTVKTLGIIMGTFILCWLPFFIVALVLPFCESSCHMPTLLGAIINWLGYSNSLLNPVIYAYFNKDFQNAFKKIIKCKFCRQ

[2] = molecular target: recombinant human 5-HT2A receptor (Homo sapiens, UniProt P28223); assay: [125I]DOI binding to HEK-h5-HT2A cell membranes
recombinant human 5-HT2A receptor, sequence (P28223 whole entry): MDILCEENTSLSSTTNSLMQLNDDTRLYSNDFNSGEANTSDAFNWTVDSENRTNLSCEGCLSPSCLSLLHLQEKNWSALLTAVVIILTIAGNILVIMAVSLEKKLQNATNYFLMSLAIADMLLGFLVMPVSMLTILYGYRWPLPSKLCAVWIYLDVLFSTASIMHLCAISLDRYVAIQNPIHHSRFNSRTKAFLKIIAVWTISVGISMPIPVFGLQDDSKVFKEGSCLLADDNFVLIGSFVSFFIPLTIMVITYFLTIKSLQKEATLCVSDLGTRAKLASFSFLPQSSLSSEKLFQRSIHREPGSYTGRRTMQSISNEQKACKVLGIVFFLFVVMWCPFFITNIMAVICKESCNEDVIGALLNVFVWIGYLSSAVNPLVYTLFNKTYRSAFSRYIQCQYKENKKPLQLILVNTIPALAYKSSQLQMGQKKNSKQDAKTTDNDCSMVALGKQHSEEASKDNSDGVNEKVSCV

[3] = molecular target: T3, recombinant human 5-HT2C receptor (Homo sapiens, UniProt P28335); assay: biochemical; format: binding
T3 sequence (P28335 33-458): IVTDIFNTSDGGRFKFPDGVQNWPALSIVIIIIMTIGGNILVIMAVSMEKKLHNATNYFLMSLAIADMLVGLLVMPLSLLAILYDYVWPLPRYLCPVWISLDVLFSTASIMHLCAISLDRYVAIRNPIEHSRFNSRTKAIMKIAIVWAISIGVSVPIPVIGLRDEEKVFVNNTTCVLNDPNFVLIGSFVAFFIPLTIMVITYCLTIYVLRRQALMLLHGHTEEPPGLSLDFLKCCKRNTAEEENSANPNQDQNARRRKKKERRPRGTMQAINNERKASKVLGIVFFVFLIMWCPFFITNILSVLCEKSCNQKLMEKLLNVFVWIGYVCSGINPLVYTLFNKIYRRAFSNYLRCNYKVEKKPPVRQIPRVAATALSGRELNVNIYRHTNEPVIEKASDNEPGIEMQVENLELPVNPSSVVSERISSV

h5-HT2C receptor = molecular target: T4, h5-HT2C receptor (Homo sapiens, UniProt P28335); assay: cell-based
T4 sequence (P28335 33-458): T3 sequence (P28335 33-458)

[4] = test system: nontransfected HEK-293 cells; assay: IP-1 accumulation in nontransfected HEK-293 cells; format: cell-based, human; conditions: (+)mefloquine 100 μM, 5-HT 1 μM, LSD 10 nM
[5] = molecular target: T5, recombinant human D2 receptor (Homo sapiens, UniProt P14416); assay: biochemical; format: binding
T5 sequence (P14416 whole entry): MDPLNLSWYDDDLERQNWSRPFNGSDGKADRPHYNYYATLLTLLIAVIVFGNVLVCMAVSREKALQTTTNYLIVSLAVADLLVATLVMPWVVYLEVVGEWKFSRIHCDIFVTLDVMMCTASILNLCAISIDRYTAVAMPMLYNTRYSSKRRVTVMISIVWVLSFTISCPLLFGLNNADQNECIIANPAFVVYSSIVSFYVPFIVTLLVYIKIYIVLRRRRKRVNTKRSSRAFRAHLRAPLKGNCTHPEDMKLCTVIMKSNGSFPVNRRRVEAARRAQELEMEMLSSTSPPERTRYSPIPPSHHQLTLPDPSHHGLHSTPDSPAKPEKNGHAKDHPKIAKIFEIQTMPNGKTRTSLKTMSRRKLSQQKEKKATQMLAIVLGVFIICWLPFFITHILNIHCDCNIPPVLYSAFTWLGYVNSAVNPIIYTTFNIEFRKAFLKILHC

h5-HT2A receptor [6] = molecular target: T6, h5-HT2A receptor (Homo sapiens, UniProt P28223); assay: IP-1 formation in HEK-h5-HT2A cells; format: cell-based; conditions: for agonist character at h5-HT2A receptor, IP-1 formation (in words): compared to 5-HT
T6 sequence (P28223 whole entry): as the sequence (P28223 whole entry) above

h5-HT2A receptor [7] = molecular target: T6, h5-HT2A receptor; format: binding
h5-HT2A receptor [8] = molecular target: T6, h5-HT2A receptor; format: binding; remark: listed apart in the source
[9] = molecular target: T5, recombinant human D2 receptor; assay: cell-based; format: cell-based
[10] = molecular target: T7, recombinant human norepinephrine transporter (Homo sapiens, UniProt P23975); assay: biochemical; format: binding
T7 sequence (P23975 whole entry): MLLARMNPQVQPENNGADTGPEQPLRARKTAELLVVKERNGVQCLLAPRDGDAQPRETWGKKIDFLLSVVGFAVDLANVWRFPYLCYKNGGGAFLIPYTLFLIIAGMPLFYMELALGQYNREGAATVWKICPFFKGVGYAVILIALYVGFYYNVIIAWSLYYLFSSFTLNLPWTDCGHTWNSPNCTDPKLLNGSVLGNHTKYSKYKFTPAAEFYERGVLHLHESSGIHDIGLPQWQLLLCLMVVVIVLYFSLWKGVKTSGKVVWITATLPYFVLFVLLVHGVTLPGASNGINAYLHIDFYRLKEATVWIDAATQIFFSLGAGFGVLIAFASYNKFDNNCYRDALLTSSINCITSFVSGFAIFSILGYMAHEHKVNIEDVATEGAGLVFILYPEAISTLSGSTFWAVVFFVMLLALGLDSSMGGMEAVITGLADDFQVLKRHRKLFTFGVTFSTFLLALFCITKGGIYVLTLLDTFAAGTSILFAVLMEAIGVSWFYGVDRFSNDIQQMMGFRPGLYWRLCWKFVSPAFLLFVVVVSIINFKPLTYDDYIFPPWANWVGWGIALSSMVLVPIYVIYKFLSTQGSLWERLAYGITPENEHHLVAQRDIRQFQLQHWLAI

[11] = molecular target: recombinant human D1 receptor (Homo sapiens, UniProt P21728); assay: [3H]SCH23390 binding to LhD1 cells; conditions: read-out: D1 [3H]SCH23390 Ki (nM) ± SEM
recombinant human D1 receptor, sequence (P21728 whole entry): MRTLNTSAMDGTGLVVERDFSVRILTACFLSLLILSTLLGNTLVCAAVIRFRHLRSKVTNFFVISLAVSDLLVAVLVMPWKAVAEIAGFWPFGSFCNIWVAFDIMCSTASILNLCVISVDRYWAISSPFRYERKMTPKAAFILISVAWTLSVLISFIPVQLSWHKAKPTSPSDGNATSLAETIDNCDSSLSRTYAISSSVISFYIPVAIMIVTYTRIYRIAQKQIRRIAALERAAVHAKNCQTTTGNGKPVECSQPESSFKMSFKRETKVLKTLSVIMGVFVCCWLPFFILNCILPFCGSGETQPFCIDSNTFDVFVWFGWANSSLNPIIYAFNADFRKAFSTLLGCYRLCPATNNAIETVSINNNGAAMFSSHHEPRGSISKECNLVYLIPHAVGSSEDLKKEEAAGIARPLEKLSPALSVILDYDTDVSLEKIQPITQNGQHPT

[12] = molecular target: T8, recombinant human D3 receptor (Homo sapiens, UniProt P35462); assay: [3H]YM 09151-2 binding to CHOp-D3 cells
T8 sequence (P35462 whole entry): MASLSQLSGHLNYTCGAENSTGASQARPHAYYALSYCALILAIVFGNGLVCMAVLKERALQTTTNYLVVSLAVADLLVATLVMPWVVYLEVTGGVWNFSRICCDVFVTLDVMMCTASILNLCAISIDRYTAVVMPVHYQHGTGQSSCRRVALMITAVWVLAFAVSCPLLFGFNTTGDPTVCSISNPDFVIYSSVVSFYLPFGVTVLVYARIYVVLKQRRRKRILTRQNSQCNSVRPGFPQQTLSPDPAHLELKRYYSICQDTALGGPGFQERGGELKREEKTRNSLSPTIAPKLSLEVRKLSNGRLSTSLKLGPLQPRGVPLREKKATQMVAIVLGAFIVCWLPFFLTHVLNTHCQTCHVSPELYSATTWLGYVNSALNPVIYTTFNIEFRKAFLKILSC

[13] = molecular target: T8, recombinant human D3 receptor; conditions: for agonist activity at hD3 receptor, mitogenesis (in words): compared to quinpirole
[14] = prophylactic use; from 8.7 to 14 mg/kg with free/whole brain ratio […]
[15] = varies by preparation, ref Wiedekam et al., 1998, cited from earlier work
[16] = molecular target: T9, recombinant human dopamine transporter (Homo sapiens, UniProt Q01959); assay: [125I]RTI-55 binding to HEK-hDAT cells
T9 sequence (Q01959 whole entry): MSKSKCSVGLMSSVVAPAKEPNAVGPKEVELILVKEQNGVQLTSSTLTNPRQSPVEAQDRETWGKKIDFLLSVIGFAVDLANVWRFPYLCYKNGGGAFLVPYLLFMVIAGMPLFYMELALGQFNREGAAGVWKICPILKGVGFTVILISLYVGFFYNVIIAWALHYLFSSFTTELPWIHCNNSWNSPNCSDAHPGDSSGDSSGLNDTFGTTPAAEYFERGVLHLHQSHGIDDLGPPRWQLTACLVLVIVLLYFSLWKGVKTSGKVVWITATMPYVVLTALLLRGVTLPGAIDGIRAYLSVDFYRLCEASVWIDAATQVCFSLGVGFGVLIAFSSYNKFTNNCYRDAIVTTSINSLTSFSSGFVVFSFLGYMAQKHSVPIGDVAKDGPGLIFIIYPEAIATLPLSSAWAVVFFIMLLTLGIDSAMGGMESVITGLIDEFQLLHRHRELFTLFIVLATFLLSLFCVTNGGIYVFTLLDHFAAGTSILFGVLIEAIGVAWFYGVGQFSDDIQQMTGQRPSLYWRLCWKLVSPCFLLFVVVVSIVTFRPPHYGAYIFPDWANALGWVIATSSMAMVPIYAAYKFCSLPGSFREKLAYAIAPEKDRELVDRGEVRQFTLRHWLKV

[17] = molecular target: T9, recombinant human dopamine transporter; assay: [3H]dopamine uptake by HEK-hDAT cells; format: cell-based
[18] = molecular target: T7, recombinant human norepinephrine transporter; assay: cell-based
[19] = read-out: D2 [3H]YM 09151-2 Ki, in μM
[20] = read-out: D4.4 [3H]YM 09151-2 Ki, in μM
[21] = read-out: h5-HT2C [125I]DOI Ki (nM) ± SEM, HEK-h5-HT2C membranes

CCN(CC)CCCC(C)Nc1ccnc2cc(Cl)ccc12 (racemic) [Chloroquine, (RS)-N′-(7-chloroquinolin-4-yl)-N, N-diethyl-pentane-1,4-diamine]
Ki (human D4.4 receptor): > 10 µM

Cc1cc2c(cc1Cl)N(C(=O)Nc1ccc(Oc3cccnc3C)nc1)CC2 [SB242087]
Ki [1]: > 9300 nM
Ki [2]: 120 ± 32 nM
Ki [3]: 11.4 ± 4 nM
IC50 (h5-HT2C receptor): 0.167 ± 0.061 nM
h5-HT2C IP1 formation % inhibition (h5-HT2C receptor): 93.7 ± 5.5%

NCCc1c[nH]c2ccc(O)cc12 [5-HT, serotonin]
effect on IP-1 accumulation in nontransfected cells (in words) [4]: no effect

OC(c1cc(C(F)(F)F)nc2c(C(F)(F)F)cccc12)C1CCCCN1 (single isomer, unassigned; (-)) [(−)-Mefloquine]
Ki [5, 19]: > 10 µM
Ki (human D4.4 receptor; [20]): > 10 µM

COc1cc(CC(C)N)c(OC)cc1C (centres unmarked) [DOM, 2,5-dimethoxy-4-methylamphetamine]
Ki [1]: 14200 nM
Ki [2]: 4.3 ± 1.2 nM
EC50 (h5-HT2A receptor [6]): 24.7 ± 8.5 nM
agonist character at h5-HT2A receptor, IP-1 formation (in words) (h5-HT2A receptor [6]): full agonists
Ki (h5-HT2A receptor [7]): 2.06 ± 0.52 nM
Ki (h5-HT2A receptor [8]): 13.7 ± 6 nM
Ratio ketanserin/DOI Ki (h5-HT2A receptor [8]; h5-HT2A, Ki [3H]ketanserin over Ki [125I]DOI): 6.65 ^**

CC(C)(C)[C@]1(O)CCN2C[C@H]3c4ccccc4CCc4cccc(c43)[C@@H]2C1 [Butaclamol]
inhibition at 0.03 µM ([9]; read-out: D2 mitogenesis % inhibition): 98.1 ± 1.9%

CCN(CC)C(=O)[C@@H]1C=C2c3cccc4[nH]cc(c34)C[C@H]2N(C)C1 [LSD, lysergic acid diethylamide]
agonist character at h5-HT2A receptor, IP-1 formation (in words) (h5-HT2A receptor [6]): full agonists
Ki ([10]; read-out: Norepinephrine transporter, inhibition of [125I]RTI-55 binding Ki (nM) ± SEM): 5600 nM
Ki [11]: 273 ± 89 nM
Ki ([5]; read-out: D2 [3H]YM 09151-2 Ki (nM) ± SEM): 0.0388 ± 0.0018 µM
Ki ([12]; read-out: D3 [3H]YM 09151-2 Ki (nM) ± SEM): 27.1 ± 1.3 nM
Ki (human D4.4 receptor; read-out: D4.4 [3H]YM 09151-2 Ki (nM) ± SEM): 0.33 ± 0.12 µM
D2 mitogenesis % stimulation [9]: 47.9 ± 6.2%
agonist activity at hD2 receptor, mitogenesis (in words) [9]: partial agonist
EC50 ([9]; read-out: D2 mitogenesis EC50 (nM) ± SEM (n)): 18.1 nM
effect on IP-1 accumulation in nontransfected cells (in words) [4]: no effect
agonist activity at hD3 receptor, mitogenesis (in words) [13]: full agonist
D3 mitogenesis % stimulation ([13]; normalized to the maximal stimulation by quinpirole): 104.4 ± 6.1%
EC50 ([13]; read-out: D3 mitogenesis EC50 (nM) ± SEM (n), agonist mode, NC: the data did not converge): 48 ± 14 nM

COc1ccccc1N1CCN(CCN(C(=O)C2CCCCC2)c2ccccn2)CC1 [WAY 100635]
Ki [3, 21]: 3000 nM

Oc1cc2c(cc1O)C(c1ccccc1)CNCC2 (centres unmarked) [SKF 38393, 1-phenyl-2,3,4,5-tetrahydro-1H-3-benzazepine-7,8-diol]
Ki [12]: 4300 ± 1800 nM
Ki (human D4.4 receptor): 28 ± 13 µM

O[C@H](c1cc(C(F)(F)F)nc2c(C(F)(F)F)cccc12)[C@@H]1CCCCN1 [(+)-Mefloquine]
Ki [5, 19]: > 10 µM
Ki (human D4.4 receptor; [20]): > 10 µM
antagonist activity at D2 receptor, mitogenesis (in words) ([9]; against quinpirole): no antagonist activity
agonist activity at hD2 receptor, mitogenesis (in words) ([9]; compared to quinpirole): no agonist activity
effect on IP-1 accumulation in nontransfected cells (in words) [4]: no effect
antagonist activity at D3 receptor, mitogenesis (in words) ([13]; against quinpirole): fully antagonized
D3 mitogenesis % inhibition ([13]; antagonism of quinpirole (30 nM)-stimulated mitogenesis): 97.3 ± 2.7%
agonist activity at hD3 receptor, mitogenesis (in words) [13]: no agonist activity

OC(c1cc(C(F)(F)F)nc2c(C(F)(F)F)cccc12)C1CCCCN1 (stereo not drawn) [mefloquine, [(R*, S*)-2,8-bis(trifluoromethyl)quinolin-4-yl]-(2-piperidyl)methanol]
increase of IP-1 above basal activity in transfected cells (h5-HT2A receptor [6]; HEK-h5-HT2A and HEK-h5-HT2C transfected cells together, 100 μM (+)mefloquine, Fig 2c): 3–5 fold
free mefloquine in brain, translated from brain levels [14]: 100 to 135 nM
Cmax ([15]; conversion of 1018 μg/L): ~2600 nM
Cmax [15]: 1018 ng/mL

C[C@H](N)Cn1ccc2cc(F)c(Cl)cc21 [Ro60-0175]
Ki [3, 21]: 7.3 ± 1.6 nM

C=C[C@H]1C[N@@]2CC[C@H]1C[C@H]2[C@H](O)c1ccnc2ccc(OC)cc12 [Quinine, (R)-(6-Methoxyquinolin-4-yl)((2S,4S,8R)-8-vinylquinuclidin-2-yl)methanol]
Ki [16]: > 8300 nM
Ki [10]: > 5500 nM
IC50 [17]: > 10000 nM
IC50 [18]: > 10000 nM

CN1CCc2cc(Cl)c(O)cc2C(c2ccccc2)C1 (centres unmarked) [SCH23390, 7-chloro-3-methyl-1-phenyl-1,2,4,5-tetrahydro-3-benzazepin-8-ol]
Ki [5]: 0.887 ± 0.017 µM
Ki (human D4.4 receptor): 9.7 ± 1.1 µM

CN(C)CCc1c[nH]c2ccccc12 [DMT, N,N-dimethyltryptamine]
EC50 (h5-HT2A receptor [6]): 227 ± 64 nM
agonist character at h5-HT2A receptor, IP-1 formation (in words) (h5-HT2A receptor [6]): partial agonist
Ki (h5-HT2A receptor [7]): 53 ± 10 nM
Ki (h5-HT2A receptor [8]): 175 ± 42 nM
